# Data as given in ChEMBL document CHEMBL3351419, “Orally bioavailable 6-chloro-7-methoxy-4(1H)-quinolones efficacious against multiple stages of Plasmodium” (J Med Chem, 2014).
# Assays:
# Plasmodium falciparum [1] = assay: Antimalarial activity against multi-drug-resistant Plasmodium falciparum W2 infected in human type A+ erythrocytes assessed as growth inhibition after 72 hrs by SYBR Green I assay; type: functional, organism-based; details: W2, 72 h
# Plasmodium falciparum [2] = assay: Antimalarial activity against multi-drug-resistant Plasmodium falciparum TM90-C2B infected in human type A+ erythrocytes assessed as growth inhibition after 72 hrs by SYBR Green I assay; type: functional, organism-based
# [3] = Resistance index, ratio of EC50 for multi-drug-resistant Plasmodium falciparum TM90-C2B infected in human type A+ erythrocytes to EC50 for multi-drug-resistant Plasmodium falciparum W2 infected in human type A+ erythrocytes; type: functional
# J774 = assay: Cytotoxicity against mouse J774 cells after 72 hrs by CellTiter 96 assay; type: cell-based; details: J774, 72 h
# [4] = Cytotoxicity index, ratio of EC50 for mouse J774 cells to EC50 for multi-drug-resistant Plasmodium falciparum TM90-C2B infected in human type A+ erythrocytes; type: toxicity, cell-based; details: read-out: Ratio EC50
# Liver microsome [5] = assay: Half life in human liver microsomes at 1 uM by LC-MS analysis; type: ADME
# [6] = octanol/water, pH 7.4
# Plasmodium berghei [7] = assay: Antimalarial activity against Plasmodium berghei ANKA expressing GFP infected in Balb/c mouse assessed as inhibition of parasitemia at 50 mg/kg, po qd administered as single dose on day 3 to 5 of exposure measured on day 6 post exposure by in vivo thomson test relative to control; type: functional
# Plasmodium berghei [8] = assay: Antimalarial activity against Plasmodium berghei ANKA expressing GFP infected in Balb/c mouse assessed as inhibition of parasitemia at 10 mg/kg, po qd administered as single dose on day 3 to 5 of exposure measured on day 6 post exposure by in vivo thomson test relative to control; type: functional
# Plasmodium berghei [9] = assay: Antimalarial activity against Plasmodium berghei ANKA expressing GFP infected in Balb/c mouse assessed as mouse survival at 50 mg/kg, po qd administered as single dose on day 3 to 5 of exposure measured on day 6 post exposure by in vivo thomson test relative to control; type: functional
# Plasmodium berghei [10] = assay: Antimalarial activity against Plasmodium berghei ANKA expressing GFP infected in Balb/c mouse assessed as mouse survival at 10 mg/kg, po qd administered as single dose on day 3 to 5 of exposure measured on day 6 post exposure by in vivo thomson test relative to control; type: functional
# [11] = Aqueous solubility of the compound at pH 7.4; type: physicochemical; details: buffer
# Plasmodium berghei [12] = assay: Antimalarial activity against Plasmodium berghei ANKA expressing GFP infected in Balb/c mouse assessed as mouse cured from disease at 10 mg/kg, po qd administered as single dose on day 3 to 5 of exposure measured on day 30 post exposure by in vivo thomson test relative to control; type: functional
# Plasmodium berghei [13] = assay: animal or person; details: ANKA, in Mus musculus, read-out: INH
# Plasmodium berghei [14] = assay: animal or person; details: ANKA, in Mus musculus, read-out: INH; remark: listed apart in the source
# Plasmodium berghei [15] = assay: Antimalarial activity against Plasmodium berghei ANKA expressing GFP infected in Balb/c mouse assessed as mouse cured from disease at 50 mg/kg, po qd administered as single dose on day 3 to 5 of exposure measured on day 30 post exposure by in vivo thomson test relative to control; type: functional
# Plasmodium berghei [16] = assay: Antimalarial activity against Plasmodium berghei ANKA expressing GFP infected in Balb/c mouse assessed as inhibition of parasitemia at 3 mg/kg, po qd administered as single dose on day 3 to 5 of exposure measured on day 6 post exposure by in vivo thomson test relative to control; type: functional
# Plasmodium berghei [17] = assay: Antimalarial activity against Plasmodium berghei ANKA expressing GFP infected in Balb/c mouse assessed as mouse survival at 3 mg/kg, po qd administered as single dose on day 3 to 5 of exposure measured on day 6 post exposure by in vivo thomson test relative to control; type: functional
# Plasmodium berghei [18] = assay: Antimalarial activity against Plasmodium berghei ANKA expressing GFP infected in Balb/c mouse assessed as mouse cured from disease at 3 mg/kg, po qd administered as single dose on day 3 to 5 of exposure measured on day 30 post exposure by in vivo thomson test relative to control; type: functional
# Liver microsome [19] = assay: Intrinsic clearance in human liver microsomes at 1 uM by LC-MS analysis; type: ADME; details: microsomes, 1 µM
SMILES,EC50 (Plasmodium falciparum [1]),EC50 (Plasmodium falciparum [2]),Ratio EC50 [3],EC50 (J774),selectivity ratio [4],t1/2 (Liver microsome [5]),logD [6],inhibition in vivo at 50 mg/kg (Plasmodium berghei [7]),inhibition in vivo at 10 mg/kg (Plasmodium berghei [8]),mouse survival time at 50 mg/kg (Plasmodium berghei [9]),survival time at 10 mg/kg (Plasmodium berghei [10]),solubility kinetic [11],Activity (Plasmodium berghei [12]),inhibition in vivo at 50 mg/kg (Plasmodium berghei [13]),inhibition in vivo at 50 mg/kg (Plasmodium berghei [14]),Activity (Plasmodium berghei [15]),inhibition in vivo at 3 mg/kg (Plasmodium berghei [16]),survival time at 3 mg/kg (Plasmodium berghei [17]),Activity (Plasmodium berghei [18]),CLint_mic (Liver microsome [19])
COc1cc2[nH]c(C)c(-c3ccc(COc4ccc(OC(F)(F)F)cc4)cc3)c(=O)c2cc1Cl,0.00774 µM,0.00159 µM,0.21,> 20.4 µM,> 12800,2.15 h,4.4,–,–,–,–,–,–,–,–,–,–,–,–,–
COc1cc2[nH]c(C)c(-c3ccc(N(C)C)nc3)c(=O)c2cc1Cl,0.748 µM,0.0911 µM,0.12,> 29.1 µM,> 319,–,–,22%,< 1%,0 days,0 days,–,–,–,–,–,–,–,–,–
COc1cc2[nH]c(C)c(-c3ccc(Oc4ccc(OC(F)(F)F)cc4)cc3C)c(=O)c2cc1Cl,0.000312 µM,0.000646 µM,2.07,> 20.4 µM,> 31600,–,2.1,98%,99%,–,23 days,< 2 µM,100%,–,–,–,–,–,–,–
C[C@H]1[C@H](OC(=O)CCC(=O)O)O[C@@H]2O[C@@]3(C)CC[C@H]4[C@H](C)CC[C@@H]1[C@@]24OO3 [ARTESUNATE],–,–,–,–,–,–,–,–,–,–,–,–,–,97%,81%,–,–,–,–,–
COc1cc2[nH]c(C)c(-c3ccc(OC(C)C)cc3)c(=O)c2cc1Cl,0.0584 µM,0.0126 µM,0.22,> 27.9 µM,> 2220,–,–,–,–,–,–,–,–,41.4%,26.8%,–,–,–,–,–
COc1cc2[nH]c(C)c(-c3ccc(Oc4ccccc4)cc3)c(=O)c2cc1Cl,0.0024 µM,0.00131 µM,0.55,> 25.5 µM,> 19500,–,–,70%,87%,4 days,4 days,–,0%,83.9%,69%,0%,–,–,–,–
COc1cc2[nH]c(C)c(-c3ccc(OC(F)(F)F)cc3)c(=O)c2cc1Cl,0.00772 µM,0.00776 µM,1.01,> 26.1 µM,> 3360,–,–,–,–,–,–,–,–,60%,28.8%,–,–,–,–,–
COc1cc2[nH]c(C)c(-c3ccc(C(F)(F)F)cc3C)c(=O)c2cc1Cl,0.00202 µM,0.000578 µM,0.29,> 26.2 µM,> 45300,3.93 h,2.7,–,80%,0 days,6 days,< 2 µM,0%,–,–,0%,84%,23 days,100%,–
CCCSc1ccc2nc(NC(=O)OC)[nH]c2c1 [ALBENDAZOLE],–,–,–,–,–,–,–,–,–,–,–,6.1 µM,–,–,–,–,–,–,–,–
COc1cc2[nH]c(C)c(-c3ccc(C(F)(F)F)cc3)c(=O)c2cc1Cl,0.00625 µM,0.00598 µM,0.96,> 27.2 µM,> 4550,–,–,97%,92%,4 days,3 days,–,0%,–,–,0%,–,–,–,–
COc1cc2[nH]c(C)c(-c3ccccc3C)c(=O)c2cc1Cl,0.00583 µM,0.00403 µM,0.69,> 31.9 µM,> 7910,–,–,41%,17%,0 days,0 days,–,–,9%,–,–,–,–,–,–
COc1cc2[nH]c(C)c(-c3ccc(OCc4ccccc4)c(F)c3)c(=O)c2cc1Cl,0.0734 µM,0.0108 µM,0.15,> 23.6 µM,> 2180,0.383 h,3.8,–,–,–,–,< 2 µM,–,–,–,–,–,–,–,–
O=C1C(O)=C([C@H]2CC[C@H](c3ccc(Cl)cc3)CC2)C(=O)c2ccccc21 [ATOVAQUONE],–,18.4 µM,–,–,–,–,–,–,–,–,–,–,–,–,–,0%,–,–,–,–
COc1cc2[nH]c(C)c(-c3ccc(F)cc3F)c(=O)c2cc1Cl,0.0263 µM,0.0446 µM,1.7,> 29.8 µM,> 668,–,–,–,–,–,–,–,–,44.3%,29.1%,–,–,–,–,–
COc1cc2[nH]c(C)c(-c3ccco3)c(=O)c2cc1Cl,0.0342 µM,0.00843 µM,0.25,> 34.5 µM,> 4100,–,–,< 1%,< 1%,0 days,0 days,–,–,–,–,–,–,–,–,–
COc1cc2[nH]c(C)c(-c3ccccc3)c(=O)c2cc1Cl,–,–,0.59,> 33.4 µM,> 2170,–,–,< 1%,–,0 days,–,–,–,–,–,–,–,–,–,17 µL/min/mg
COc1cc2[nH]c(C)c(-c3ccc(N4CCN(C)CC4)nc3)c(=O)c2cc1Cl,1.58 µM,0.536 µM,0.34,> 25.1 µM,> 46.8,–,–,–,–,–,–,–,–,0%,0%,–,–,–,–,–
COc1cc2[nH]c(C)c(-c3ccc(-c4ccccc4)cc3)c(=O)c2cc1Cl,0.00178 µM,0.00433 µM,2.43,> 26.6 µM,> 6140,–,–,79%,80%,0 days,0 days,–,–,85.7%,61%,–,–,–,–,–
COc1cc2[nH]c(C)c(-c3ccc(F)cc3C)c(=O)c2cc1Cl,0.00752 µM,0.00807 µM,1.07,13.6 µM,1690,1.93 h,2.7,–,–,–,–,< 2 µM,–,–,–,–,–,–,–,–
COc1ccc(-c2c(C)[nH]c3cc(OC)c(Cl)cc3c2=O)cc1,0.054 µM,0.0113 µM,0.21,> 30.3 µM,> 2690,–,–,–,–,–,–,–,–,53.6%,26.9%,–,–,–,–,–
COc1cc2[nH]c(C)c(-c3ccc(CO)cc3)c(=O)c2cc1Cl,0.154 µM,0.0939 µM,0.61,> 30.3 µM,> 323,–,–,< 1%,< 1%,0 days,0 days,–,–,–,–,–,–,–,–,–
COc1cc2[nH]c(C)c(-c3ccncc3)c(=O)c2cc1Cl,0.128 µM,0.219 µM,1.71,> 33.3 µM,> 152,–,–,–,–,–,–,–,–,–,–,–,–,–,–,15 µL/min/mg
CCc1c(C)[nH]c2cc(OC)c(Cl)cc2c1=O,–,–,–,–,–,–,–,–,–,–,–,–,–,–,–,–,–,–,–,56 µL/min/mg
COc1cc2[nH]c(C)c(-c3ccc(F)cc3)c(=O)c2cc1Cl,0.0208 µM,0.0358 µM,1.72,> 31.5 µM,> 879,–,–,30%,63%,1 days,1 days,–,0%,–,–,0%,–,–,–,–
